According to patent US11292788B2, “IL-17 and IFN-gamma inhibition for the treatment of autoimmune diseases and chronic inflammation” (Immunic AG, priority 2017, dated 2022):
pIC50: −log10 of the molar value. In brackets after ≈: the same amount, converted by molar mass. Like-named read-outs stand apart in the source and are kept apart here.

Assays:
[1] = Microsomal stability: incubation with human liver microsomes, residual parent compound by HPLC-MS/MS; type: in vitro ADME; settings: up to 60 min, read-out: t1/2 hLM
Summary of the method: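 Compound at 1 μM final with 0.5 mg/ml pooled human liver microsomes and NADPH regenerating system, 0.1 M potassium phosphate pH 7.4, 0.4% DMSO, 37° C, sampled up to 60 min. Residual parent measured by HPLC-MS/MS; half-life and clearance from slope of remaining % of T0.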

[2] = Aqueous solubility in 50 mM phosphate buffer (HPLC/DAD); type: physicochemical; settings: 50 mM phosphate buffer, 23 °C, pH 7.4, aqueous buffer, kinetic from dmso stock, aqueous solubility class; read-out: aq. solub.
Procedure: To achieve this, the samples (final volume 500 μl, 200 μM compound concentration) were incubated for 24 hours at 23° C. under continuous shaking at 1400 rpm (Thermomixer, Eppendorf) in aqueous phosphate buffers (pH 4.0, 6.0, 7.4 and 9.0) with a final DMSO concentration of 1%. To separate the undissolved compound from the solution, the samples were centrifuged (30 min 18000 g at 23° C.). Supernatants were measured via HPLC equipped with a UV detector and concentrations were calculated according to signals of a standard curve. The standard curve was prepared by diluting a stock solution of each compound (c=0.1 mg/ml; received by adding 10 μl of 20 mM compound in DMSO to 914 μl MeCN) in a certain amount of MeCN to cover a range of 0.1 to 200 μg/ml.

[3] = test system: IL-17F; test: Cytokine assay: IL-17F production by human PBMC stimulated with PHA; type: cell-based; settings: Homo sapiens, PBMC, IC50 class, read-out: IL-17F Inhib.
Summary of the method: (§1)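 Compounds were titrated semilogarithmically for IC50, or screened at 10, 1, 0.1 and 0.01 μM, on healthy-donor PBMC stimulated for 48 h with 2 μg/ml PHA at 1×10^5 cells/well. Cytokines in culture supernatants were then quantified by ELISA or Luminex bead assay.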

[4] = test system: INF-γ; test: Cytokine assay: INF-γ production by human PBMC stimulated with PHA; type: cell-based; settings: Homo sapiens, PBMC, IC50 class, read-out: IFN-gamma Inhib.
Summary of the method: as §1

[5] = test system: IL-17A; test: Cytokine assay: IL-17A production by human PBMC stimulated with PHA; type: cell-based; settings: IC50 class, read-out: IL-17A Inhib.
Summary of the method: as §1

[6] = human liver microsomes 0.5 mg/ml, compound 1 μM, pH 7.4, 37° C.
[7] = pH 7.4, human liver microsomes, 1 μM compound, 0.5 mg/ml HLM, 37° C.

Row | SMILES | half-life at 1 μM [1, 6] [h] | solubility at 24 h [2] [µM] | pIC50 [3] | pIC50 [4] | pIC50 ([5]; Homo sapiens, PBMC) | half-life at 1 μM [1, 7] [h] | pIC50 [5]
1 | [2H]C(C)(O)Cn1ncc(-c2onc(-c3c(F)cccc3Cl)c2-c2nccs2)c1C(F)(F)F (racemic) [Example 31, 1-{4-[3-(2-chloro-6-fluorophenyl)-4-(1,3-thiazol-2-yl)-1,2-oxazol-5-yl]-5-(trifluoromethyl)-1H-pyrazol-1-yl}(2-^2H)propan-2-ol] | 0.667 to 1.67 | < 1 | > 7.30 | > 7.30 | > 7.30 |  | 
2 | COCc1c(-c2c(F)cccc2Cl)noc1-c1cnn(CCC(C)(C)O)c1C(F)(F)F [Example 67, 4-{4-[3-(2-chloro-6-fluorophenyl)-4-(methoxymethyl)-1,2-oxazol-5-yl]-5-(trifluoromethyl)-1H-pyrazol-1-yl}-2-methylbutan-2-ol] | > 1.67 | > 10 | 6.30 to 7.30 | > 7.30 | 6.30 to 7.30 |  | 
3 | CC(=O)c1c(-c2c(F)cccc2Cl)noc1-c1cnn(C[C@@H](C)O)c1C(F)(F)F [Example 35, 1-[3-(2-chloro-6-fluorophenyl)-5-{1-[(2R)-2-hydroxypropyl]-5-(trifluoromethyl)-1H-pyrazol-4-yl}-1,2-oxazol-4-yl]ethan-1-one] | 0.667 to 1.67 | > 10 | 6.30 to 7.30 | 6.30 to 7.30 | 6.30 to 7.30 |  | 
4 | C[C@]1(O)C[C@@H](n2ncc(-c3onc(-c4c(F)cccc4Cl)c3-c3ccncn3)c2C(F)(F)F)C1 [Example 104, 3-{4-[3-(2-chloro-6-fluorophenyl)-4-(pyrimidin-4-yl)-1,2-oxazol-5-yl]-5-(trifluoromethyl)-1H-pyrazol-1-yl}-1-methylcyclobutan-1-ol] |  | 1 to 2.99 (≈ 0.494 to 1.48 µg/mL) | > 7.30 | > 7.30 |  | > 1.67 | > 7.30
5 | CCOC(=O)c1c(-c2c(F)cccc2Cl)noc1-c1cnn(CCC(C)(C)O)c1C(F)(F)F [Example 9, ethyl 3-(2-chloro-6-fluorophenyl)-5-[1-(3-hydroxy-3-methylbutyl)-5-(trifluoromethyl)-1H-pyrazol-4-yl]-1,2-oxazole-4-carboxylate] | 0.667 to 1.67 | 3 to 9.99 (≈ 1.47 to 4.89 µg/mL) | > 7.30 | > 7.30 | > 7.30 |  | 
6 | COc1cccc(-c2noc(-c3cnn([C@H]4C[C@@](C)(O)C4)c3C(F)(F)F)c2COC2CC2)c1Cl [Example 130, 3-(4-(3-(2-chloro-3-methoxyphenyl)-4-(cyclopropoxymethyl)isoxazol-5-yl)-5-(trifluoromethyl)-1H-pyrazol-1-yl)-1-methylcyclobutan-1-ol] |  | 3 to 9.99 (≈ 1.49 to 4.97 µg/mL) | > 7.30 | > 7.30 | > 7.30 | 0.667 to 1.67 | 
7 | CCOC(=O)c1c(-c2cccc(OC)c2Cl)noc1-c1cnn(CCC(C)(C)O)c1C(F)(F)F [Example 132, ethyl 3-(2-chloro-3-methoxyphenyl)-5-[1-(3-hydroxy-3-methylbutyl)-5-(trifluoromethyl)-1H-pyrazol-4-yl]-1,2-oxazole-4-carboxylate] |  | 3 to 9.99 (≈ 1.51 to 5.01 µg/mL) | > 7.30 | > 7.30 | > 7.30 | 0.667 to 1.67 | 
8 | C[C@]1(O)C[C@@H](n2ncc(-c3onc(-c4ccccc4Cl)c3-c3ccncn3)c2C(F)(F)F)C1 [Example 106, 3-{4-[3-(2-chlorophenyl)-4-(pyrimidin-4-yl)-1,2-oxazol-5-yl]-5-(trifluoromethyl)-1H-pyrazol-1-yl}-1-methylcyclobutan-1-ol] |  | > 10 | > 7.30 | > 7.30 | > 7.30 | > 1.67 | 
9 | C[C@]1(O)C[C@@H](n2ncc(-c3onc(-c4ccccc4Cl)c3-c3cnccn3)c2C(F)(F)F)C1 [Example 101, 3-{4-[3-(2-chlorophenyl)-4-(pyrazin-2-yl)-1,2-oxazol-5-yl]-5-(trifluoromethyl)-1H-pyrazol-1-yl}-1-methylcyclobutan-1-ol] |  | 1 to 2.99 (≈ 0.476 to 1.42 µg/mL) | ≤ 5.30 | ≤ 5.30 | 5.30 to 6.30 | > 1.67 | 
10 | Cc1c(-c2onc(-c3ccccc3Cl)c2-c2ncccn2)cnn1CCC(C)(C)O [Example 126, 4-[4-[3-(2-chlorophenyl)-4-(pyrimidin-2-yl)-1,2-oxazol-5-yl]-5-methyl-1H-pyrazol-1-yl]-2-methylbutan-2-ol] |  | > 10 | 6.30 to 7.30 | 6.30 to 7.30 | 6.30 to 7.30 | > 1.67 | 
11 | C[C@]1(O)C[C@@H](n2ncc(-c3onc(-c4ccccc4Cl)c3COC3CC3)c2C(F)(F)F)C1 [Example 87, 3-{4-[3-(2-chlorophenyl)-4-(cyclopropoxymethyl)-1,2-oxazol-5-yl]-5-(trifluoromethyl)-1H-pyrazol-1-yl}-1-methylcyclobutan-1-ol] | > 1.67 | > 10 | > 7.30 | > 7.30 | 6.30 to 7.30 |  | 
12 | CCOC(=O)c1c(-c2c(F)cccc2Cl)noc1-c1cnn(CC(O)C(F)(F)F)c1C(F)(F)F (racemic) [Example 15, ethyl 3-(2-chloro-6-fluorophenyl)-5-[1-(3,3,3-trifluoro-2-hydroxypropyl)-5-(trifluoromethyl)-1H-pyrazol-4-yl]-1,2-oxazole-4-carboxylate] | 0.0333 to 0.167 | 3 to 9.99 (≈ 1.55 to 5.15 µg/mL) | > 7.30 | > 7.30 | > 7.30 |  | 
13 | CCOC(=O)c1c(-c2c(F)cccc2Cl)noc1-c1cnn(C[C@H](C)O)c1C(F)(F)F [Example 13, ethyl 3-(2-chloro-6-fluorophenyl)-5-(1-((2S)-2-hydroxypropyl)-5-(trifluoromethyl)-1H-pyrazol-4-yl)-1,2-oxazole-4-carboxylate] | 0.667 to 1.67 | > 10 | > 7.30 | > 7.30 | > 7.30 |  | 
14 | CCOC(=O)c1c(-c2cccc(OC)c2Cl)noc1-c1cnn([C@H]2C[C@@](C)(O)C2)c1C(F)(F)F [Example 131, ethyl 3-(2-chloro-3-methoxyphenyl)-5-{1-[3-hydroxy-3-methylcyclobutyl]-5-(trifluoromethyl)-1H-pyrazol-4-yl}-1,2-oxazole-4-carboxylate] |  | > 10 | > 7.30 | > 7.30 | > 7.30 | > 1.67 | 
15 | [2H]C(C)(O)Cn1ncc(-c2onc(-c3c(F)cccc3Cl)c2COC)c1C(F)(F)F (racemic) [Example 95, 1-{4-[3-(2-chloro-6-fluorophenyl)-4-(methoxymethyl)-1,2-oxazol-5-yl]-5-(trifluoromethyl)-1H-pyrazol-1-yl}(2-^2H)propan-2-ol] |  | > 10 | 6.30 to 7.30 | 6.30 to 7.30 | 6.30 to 7.30 | > 1.67 | 
16 | CC(C)(O)CCn1ncc(-c2onc(-c3cccc(OCc4ccccc4)c3Cl)c2-c2ncccn2)c1C(F)(F)F [Example 128, 4-(4-{3-[3-(benzyloxy)-2-chlorophenyl]-4-(pyrimidin-2-yl)-1,2-oxazol-5-yl}-5-(trifluoromethyl)-1H-pyrazol-1-yl)-2-methylbutan-2-ol] |  | < 1 | > 7.30 | ≤ 5.30 | > 7.30 | 0.0333 to 0.167 | 
17 | COc1cccc(-c2noc(-c3cnn([C@H]4C[C@@](C)(O)C4)c3C)c2-c2ncccn2)c1Cl [Example 112, 3-{4-[3-(2-chloro-3-methoxyphenyl)-4-(pyrimidin-2-yl)-1,2-oxazol-5-yl]-5-methyl-1H-pyrazol-1-yl}-1-methylcyclobutan-1-ol] |  | > 10 | > 7.30 | > 7.30 | > 7.30 | > 1.67 | 
18 | CCOC(=O)c1c(-c2c(F)cccc2Cl)noc1-c1cnn([C@H]2C[C@@](C)(O)C2)c1C(F)(F)F [Example 10, ethyl 3-(2-chloro-6-fluorophenyl)-5-[1-(3-hydroxy-3-methylcyclobutyl)-5-(trifluoromethyl)-1H-pyrazol-4-yl]-1,2-oxazole-4-carboxylate] | > 1.67 | 3 to 9.99 (≈ 1.46 to 4.87 µg/mL) | > 7.30 | > 7.30 | > 7.30 |  | 
19 | CC(C)OCc1c(-c2c(F)cccc2Cl)noc1-c1cnn(C[C@@H](C)O)c1C(F)(F)F [Example 89, (2R)-1-{4-[3-(2-chloro-6-fluorophenyl)-4-[(propan-2-yloxy)methyl]-1,2-oxazol-5-yl]-5-(trifluoromethyl)-1H-pyrazol-1-yl}propan-2-ol] | 0.0333 to 0.167 | > 10 | > 7.30 | > 7.30 | > 7.30 |  | 
